The record followed here is US7223754B2, “Thiazolidinone, oxazolidinone, and imidazolone derivatives for treating lower urinary tract and related disorders” (Dynogen Pharmaceuticals, Inc., priority 2003, dated 2007).

In one data set the test system is HVA calcium channels. It counts as cell-based, rat. As to conditions: n=4; 1 µM.
Data set [1] has as its system Female Sprague-Dawley rats. As to conditions: rat, in vivo.

As for Omega-conotoxin GVIA, the “calcium current amplitudes, % of control amplitudes” value with HVA calcium channels turned out to be 72.8±1.6%.

As for ω-Conotoxin MVIIA, in data set [1], the “bladder capacity versus irritation control, Dunn's MCT” value is listed as “significantly different than irritation control”; the “directly measured bladder capacity, % of control values” is listed as 69%; the “effects on other micturition parameters, such as voiding efficiency” value was “no untoward effects on other micturition parameters”; the “intermicturition interval versus irritation control (AA/Veh 3), Dunn's multiple comparison test” value is “significantly different than irritation control”. The “intermicturition interval, % of pre-irritation control values” in data set [1] was 81%.
